Results published in patent US11548893B2 (priority 2017, dated 2023).
Read-outs that look alike come from different tables or passages of the source.

Columns and labels:
[1] = system: EBOV (mucin-deleted glycoprotein, VSV pseudotype); assay: microbe, parasite or virus in culture; format: cell-based, Zaire ebolavirus; conditions: read-out: EC50 Pseudotype Assays EBOV
[2] = system: EBOV_FL: full-length Ebola Zaire GP (VSV pseudotype); assay: microbe, parasite or virus in culture; format: cell-based, Zaire ebolavirus; conditions: Zaire ebolavirus, Vero, 24 h, read-out: EC50 Pseudotype Assays EBOV_FL
[3] = system: BDBV (mucin-deleted glycoprotein, VSV pseudotype); assay: microbe, parasite or virus in culture; format: cell-based, Bundibugyo ebolavirus; conditions: Vesicular stomatitis virus, Vero, 24 h, read-out: EC50 Pseudotype Assays BDBV
[4] = system: SUDV (glycoprotein, VSV pseudotype); assay: microbe, parasite or virus in culture; format: cell-based, Sudan ebolavirus; conditions: Vesicular stomatitis virus, Vero, 24 h, read-out: EC50 Pseudotype Assays SUDV
[5] = system: MARV (full-length glycoprotein, VSV pseudotype); assay: microbe, parasite or virus in culture; format: cell-based, Marburg marburgvirus; conditions: Vesicular stomatitis virus, Vero, 24 h, read-out: EC50 Pseudotype Assays MARV
in vitro = conditions: African green monkey, Cytotox CC50
[6] = system: VSV (native full-length glycoprotein); assay: microbe, parasite or virus in culture; format: cell-based; conditions: Vesicular stomatitis virus, Vero, read-out: EC50 Pseudotype Assays VSV
[7] = microsomes, 1 h
[8] = microsomes, 1 h; remark: listed apart in the source
[9] = microsomes, 1 h; remark: listed apart in the source
[10] = microsomes, 1 h; remark: listed apart in the source

SMILES	EC50 ([1]; Zaire ebolavirus, Vero, 24 h) [nM]	EC50 [2] [nM]	EC50 [3] [nM]	EC50 [4] [nM]	EC50 [5] [nM]	CC50 (in vitro) [nM]	EC50 [6] [nM]	Liver Microsome Stability % Remaining after 60 Minutes, Human [7] [%]	Liver Microsome Stability % Remaining after 60 Minutes, Mouse [8] [%]	Liver Microsome Stability % Remaining after 60 Minutes, Monkey [9] [%]	Liver Microsome Stability % Remaining after 60 Minutes, Guinea Pig [10] [%]	EC50 [1] [nM]
C[C@]12CC3CC(C(=O)N[C@@H]4CCNC[C@H]4F)(C1)C[C@@](c1ccccc1)(C3)C2 [Example B5]	19	20	174	240	> 3000	11900	–	–	–	–	–	–
C[C@@]12CC3CC(C(=O)N4CCC(N)CC4)(C1)C[C@](c1ccccc1)(C3)C2 [Example C7]	124	170	198	335	8200	13000	–	–	–	–	–	–
CC12CC3CC(C(=O)NC4CCNCC4)(C1)CC(c1ccccc1)(C3)C2 (racemic) [Example A1]	42	40	160	380	2800	16100	> 10000	–	–	–	–	–
CCC12CC3CC(C(=O)N[C@@H]4CCNC[C@H]4O)(C1)CC(c1ccccc1)(C3)C2 (mixture of isomers) [Example A25]	41	60	198	795	8460	11800	–	–	–	–	–	–
C[C@]12CC3CC(C(=O)N[C@H]4CCNC[C@@H]4F)(C1)C[C@@](c1ccccc1)(C3)C2 [Example B6]	36	20	193	320	> 3000	12200	–	–	–	–	–	–
CC12CC3CC(C(=O)N4CCC5(CCCN5)CC4)(C1)CC(c1ccccc1)(C3)C2 (racemic) [Example A38]	40	70	104	130	–	6910	–	–	–	–	–	–
C[C@H]1C[C@@H](NC(=O)C23CC4CC(C)(C2)CC(c2ccccc2)(C4)C3)CCN1 (mixture of isomers) [Example A4]	22	25	198	730	7100	11700	> 10000	–	–	–	–	–
CCC12CC3CC(C(=O)N[C@H]4CCN[C@@H](C)C4)(C1)CC(c1ccccc1)(C3)C2 (mixture of isomers) [Example A21]	22	20	208	415	6910	3900	–	–	–	–	–	–
C[C@@]12CC3CC(C(=O)N[C@H]4CC[C@H](CN)CC4)(C1)C[C@](c1ccccc1)(C3)C2 [Example C3]	73	30	190	855	3170	5200	–	–	–	–	–	–
CC12CC3CC(C(=O)N[C@H]4CC[C@H](CN)CC4)(C1)CC(c1ccccc1)(C3)C2 (mixture of isomers) [Example A3]	26	40	95	30	7000	8000	> 10000	–	–	–	–	–
CC12CC3CC(C(=O)N4CCC(N)CC4)(C1)CC(c1ccccc1)(C3)C2 (racemic) [Example A33]	50	200	69	300	–	13600	–	–	–	–	–	–
C[C@]12CC3CC(C(=O)N4CCC5(CCCN5)CC4)(C1)C[C@@](c1ccccc1)(C3)C2 [Example B10]	45	50	71	110	–	12300	–	–	–	–	–	–
C[C@]12CC3CC(C(=O)N4CCC(N)C5(CC5)C4)(C1)C[C@@](c1ccccc1)(C3)C2 (some centres unmarked) [Example B9]	25	60	85	75	–	8900	–	–	–	–	–	–
N[C@H]1CC[C@@H](NC(=O)C23CC4CC(CF)(C2)CC(c2ccccc2)(C4)C3)CC1 (mixture of isomers) [Example A28]	62	140	596	1540	> 10000	32300	–	–	–	–	–	–
CC12CC3CC(C(=O)N4CCC5(CC4)CNC5)(C1)CC(c1ccccc1)(C3)C2 (racemic) [Example A48]	14	140	35	35	–	13700	–	46	76	22	87	–
CCC12CC3CC(C(=O)N[C@@H]4CCNC[C@@H]4F)(C1)CC(c1ccccc1)(C3)C2 (mixture of isomers) [Example A23]	41	20	306	500	3510	7800	–	–	–	–	–	–
CC12CC3CC(C(=O)N4CC5(CCNC5)C4)(C1)CC(c1ccccc1)(C3)C2 (racemic) [Example A49]	23	190	109	200	–	21900	–	–	–	–	–	–
CC1(C)CN(C(=O)C23CC4C[C@@](C)(C2)C[C@](c2ccccc2)(C4)C3)CC[C@@H]1N [Example B13]	14	–	71	40	–	11300	–	85	51	32	50	–
C[C@H]1C[C@@H](NC(=O)C23CC4C[C@](C)(C2)C[C@@](c2ccccc2)(C4)C3)CCN1 [Example C4]	78	30	178	1020	> 3000	14000	–	–	–	–	–	–
CCC12CC3CC(C(=O)NC4(C)CCNCC4)(C1)CC(c1ccccc1)(C3)C2 (racemic) [Example A26]	130	200	333	605	2570	6700	–	–	–	–	–	–
C[C@@]12CC3CC(C(=O)N4CCC5(CCCN5)CC4)(C1)C[C@](c1ccccc1)(C3)C2 [Example C10]	100	180	85	155	–	12700	–	–	–	–	–	–
CCC12CC3CC(C(=O)N[C@H]4CC[C@H](CN)CC4)(C1)CC(c1ccccc1)(C3)C2 (mixture of isomers) [Example A22]	19	10	185	416	2800	3700	–	–	–	–	–	–
CCC12CC3CC(C(=O)N[C@@H]4CCNC[C@H]4F)(C1)CC(c1ccccc1)(C3)C2 (mixture of isomers) [Example A17]	–	25	125	255	5910	6000	–	–	–	–	–	39
CCC12CC3CC(C(=O)N[C@H]4CCNC[C@@H]4F)(C1)CC(c1ccccc1)(C3)C2 (mixture of isomers) [Example A19]	23	40	261	465	3440	7300	–	–	–	–	–	–
CCC12CC3CC(C(=O)NC4CCNCC4(C)C)(C1)CC(c1ccccc1)(C3)C2 (racemic) [Example A20]	42	30	135	330	1570	5700	–	–	–	–	–	–
